Publication PMC9241302, “Identification of 2-(4-N,N-Dimethylaminophenyl)-5-methyl-1-phenethyl-1H-benzimidazole targeting HIV-1 CA capsid protein and inhibiting HIV-1 replication in cellulo” (BMC Pharmacology & Toxicology, 2022)

Experiments:
[1] = Cytotoxicity in mammalian cells (MTT, all cell types); assay type: cell-based; details: tested at 25, 50, and 100 µM
Protocol: The cytotoxicity of the compounds was assayed in different types of cells (TZM-bl cells, U87-CD4-CCR5, murine macrophages (J774.1), and THP-1 monocytes) at 25, 50, and 100 µM (Fig. 2). […] Compound 314 has the most complete toxicology profile because was preclinically developed for Chagas disease infection, as an antiparasitic drug. […] It has lower oral toxicity than PF74. Was predicted as no mutagenic by the TEST software.
TZM-bl cells, U87-CD4-CCR5, murine macrophages (J774.1), and THP-1 monocytes (ATCC®TIB-202™) were grown following ATCC recommendations. Cells were seeded in a 96-well plate (10^4 cells in 200 µL culture medium) and incubated at 37 °C in a 5% CO2 atmosphere for 48 h, to allow cell adhesion before drug testing. For stimulation (THP-1 monocytes), cells were incubated with 100 nM of phorbol 12-myristate 13-acetate (PMA) for 48 h. PMA was then washed and cells were left for an additional 24 h, 48 h or11 days (only U87 cells) with growth media containing compound 696 at 10, 25, 50, and 100 µM. […] Cell viability was then assessed by measuring the mitochondria-dependent reduction of MTT (3-(4,5-dimethylthiazol-2-yl)-2,5-diphenyltetrazolium bromide) to formazan. […] After removing the medium, formazan crystals were dissolved in 180 µL of DMSO and 20µL of MTT buffer (0.1 M glycine, 0.1 M NaCl, 0.5 mM EDTA, pH 10.5), and the absorbance at 560 nm was measured. […]

monomeric HIV-1 CA = target: T1, monomeric HIV-1 CA (Human immunodeficiency virus type 1 group M subtype B, UniProt P12493); assay: Affinity for HIV-1 CA by microscale thermophoresis (MST); assay type: binding
T1 construct: the capsid protein (CA) of the Gag polyprotein; made in house
Protocol: The affinity of compound 696 for HIV-1 CA in vitro was measured by microscale thermophoresis (MST) as described previously for FIV CA [31]. Due to its intrinsic autofluorescence interfering with MST, the binding of compound 314 to CA was measured using isothermal microcalorimetry (ITC) with a Microcal iTC200 calorimeter (Malvern Instruments, Worcestershire, UK). The calorimeter cell contained 200 µL of recombinant HIV-1 CA (kind gifted by Drs Verrier and Coiffier) at 0.78 mg/mL in phosphate buffer (NaH2PO4/Na2HPO4) 50 mM pH 7.5, NaCl 100 mM, 1% DMSO [v/v]. Compound 314 at 200 µM was then injected sequentially into the calorimeter cell (injection #1: 1 µL, injections #2-#20: 2 µL) at 120 s intervals. Data were analyzed using the OriginLab8.5® software according to the manufacturer’s instructions.

[2] = Liver fraction stability (thin-layer chromatography); assay type: in vitro ADME, rat
Protocol: For the determination of liver fraction stability, rat liver microsomal and cytosolic proteins were used (MOLTOX™ manufactures products, North Carolina, US). Rat liver microsomal and cytosolic proteins were used according to the manufacturer’s recommendations and the methodology previously described. […] The final concentration of 696 in the aqueous medium was 100 µM and was prepared from a stock solution in DMSO. The solutions were further homogenized and incubated at 37 °C for 1 to 4 h following the OECD recommendation for drug development. After that, thin-layer chromatography of ethyl acetate extracts was performed to evaluate the presence of metabolites.

TZM-bl cells = assay: Cytotoxicity in TZM-bl cells (MTT); assay type: cell-based, human; details: Homo sapiens, TZM-bl; Table 1, 696, 48hs
Protocol: (§1) TZM-bl cells, U87-CD4-CCR5, murine macrophages (J774.1), and THP-1 monocytes (ATCC®TIB-202™) were grown following ATCC recommendations. Cells were seeded in a 96-well plate (10^4 cells in 200 µL culture medium) and incubated at 37 °C in a 5% CO2 atmosphere for 48 h, to allow cell adhesion before drug testing. For stimulation (THP-1 monocytes), cells were incubated with 100 nM of phorbol 12-myristate 13-acetate (PMA) for 48 h. […] A vehicle for control (0.4% DMSO) and negative wells (cells in medium) was used in each test. […] After removing the medium, formazan crystals were dissolved in 180 µL of DMSO and 20µL of MTT buffer (0.1 M glycine, 0.1 M NaCl, 0.5 mM EDTA, pH 10.5), and the absorbance at 560 nm was measured. […] Tests were performed in triplicate, in two independent experiments.

[3] = Cytotoxicity in TZM-bl cells (MTT); assay type: cell-based, human; details: human, TZM-bl cells; 48hs
Protocol: as §1

[4] = Cytotoxicity in murine macrophages (MTT); assay type: cell-based; details: mouse, J774.1 murine macrophages; 48 hs
Protocol: as §1

[5] = Cytotoxicity in U87-CD4-CCR5 cells (MTT); assay type: cell-based; details: human
Protocol: TZM-bl cells, U87-CD4-CCR5, murine macrophages (J774.1), and THP-1 monocytes (ATCC®TIB-202™) were grown following ATCC recommendations. Cells were seeded in a 96-well plate (10^4 cells in 200 µL culture medium) and incubated at 37 °C in a 5% CO2 atmosphere for 48 h, to allow cell adhesion before drug testing. For stimulation (THP-1 monocytes), cells were incubated with 100 nM of phorbol 12-myristate 13-acetate (PMA) for 48 h. PMA was then washed and cells were left for an additional 24 h, 48 h or11 days (only U87 cells) with growth media containing compound 696 at 10, 25, 50, and 100 µM. A vehicle for control (0.4% DMSO) and negative wells (cells in medium) was used in each test. Cell viability was then assessed by measuring the mitochondria-dependent reduction of MTT (3-(4,5-dimethylthiazol-2-yl)-2,5-diphenyltetrazolium bromide) to formazan. […] After removing the medium, formazan crystals were dissolved in 180 µL of DMSO and 20µL of MTT buffer (0.1 M glycine, 0.1 M NaCl, 0.5 mM EDTA, pH 10.5), and the absorbance at 560 nm was measured. […]
Compounds were first dissolved in DMSO to reach a concentration of 20 mM. […] The supernatant was collected every 3–4 days and analyzed for virus production by an in-house p24 capture ELISA. IC50 was calculated using “Quest Graph™ IC50 Calculator” (AAT Bioquest, Inc., https://www.aatbio.com/tools/ic50-calculator). […]

Cc1ccc2c(c1)nc(-c1ccc(N(C)C)cc1)n2CCc1ccccc1 [compound 696, 2-(4-N,N-dimethylaminophenyl)-5-methyl-1-phenethyl-1H-benzimidazole]
EC50 [1]: > 50 µM
Kd (monomeric HIV-1 CA): 69 ± 6 µM
metabolic stability (in words) [2]: high metabolic stability
stability under microsomal and cytosolic fraction derived from rat liver ([2]; 100 µM, 37 °C, TLC, absence of new metabolites): stable for 4 h
half-life at 100 µM ([2]; rat, rat liver microsomes, read-out: Metabolic stability, half-life (t1/2)): > 4 h
EC50 (TZM-bl cells): > 25 µM
EC50 at 48 h [3]: > 50 µM
EC50 at 48 h [4]: > 50 µM
EC50 at 11 days [5]: > 50 µM
